Holding throughout (assay type): functional
The test system of one test is Pichia kudriavzevii. Put plainly: Antifungal activity against Candida krusei GIM 2.1 assessed as inhibition of fungal growth by CLSI M27-A3 guidelines based method.
Another test relates to Cryptococcus neoformans. Put plainly: Antifungal activity against Cryptococcus neoformans CGMCC 2.3161 assessed as inhibition of fungal growth by CLSI M27-A3 guidelines based method.
The next test deals with Candida parapsilosis. Put plainly: Antifungal activity against Candida parapsilosis GIM 2.190 assessed as inhibition of fungal growth by CLSI M27-A3 guidelines based method. Particulars: Lodderomyces parapsilosis.
Another test concerns Candida tropicalis. Put plainly: Antifungal activity against Candida tropicalis GIM 2.183 assessed as inhibition of fungal growth by CLSI M27-A3 guidelines based method.
For test [1], the system named is Candida albicans. Put plainly: Antifungal activity against Candida albicans GIM 2.194 assessed as inhibition of fungal growth by CLSI M27-A3 guidelines based method.
In a further test the test system is Nakaseomyces glabratus. Put plainly: Antifungal activity against Candida glabrata assessed as inhibition of fungal growth by CLSI M27-A3 guidelines based method.
For test [2], the system named is Candida albicans. Put plainly: Antifungal activity against Candida albicans SC5314 assessed as inhibition of fungal growth by CLSI M27-A3 guidelines based method.

Values after ≈ are worked out from the molar mass of the structure shown. A value given as a limit tells only on which side of the number the result lay.

One may read the MIC80 as the lowest concentration that inhibits either 80% of growth or 80% of the strains tested, depending on the study. Regarding `CN(Cc1ccc(N2CCN(Cc3cccc(F)c3)CC2)cc1)CC(O)(Cn1cncn1)c1ccc(F)cc1F` (configuration not stated), the MIC80 worked out at 0.4 µg/mL (≈ 0.726 µM) in the test on Pichia kudriavzevii; 0.4 µg/mL (≈ 0.726 µM) with Cryptococcus neoformans; 0.025 µg/mL (≈ 0.0454 µM) with Candida parapsilosis; 0.025 µg/mL (≈ 0.0454 µM) in the test with Candida tropicalis; 0.025 µg/mL (≈ 0.0454 µM) in the test with Candida albicans [1]; 1.6 µg/mL (≈ 2.91 µM) in the test with Nakaseomyces glabratus. For the same compound, in the test on Candida albicans [2], the MIC80 was 0.05 µg/mL (≈ 0.0908 µM).
Consider `CN(Cc1ccc(N2CCN(Cc3ccc(C(F)(F)F)cc3Br)CC2)cc1)CC(O)(Cn1cncn1)c1ccc(F)cc1F` (configuration not stated), for which the MIC80 came to 0.2 µg/mL (≈ 0.294 µM) in the test on Pichia kudriavzevii; 0.2 µg/mL (≈ 0.294 µM) in the test with Cryptococcus neoformans; 0.013 µg/mL (≈ 0.0191 µM) in the test on Candida parapsilosis; 0.025 µg/mL (≈ 0.0368 µM) in the test on Candida tropicalis; 0.025 µg/mL (≈ 0.0368 µM) with Candida albicans [1]; 0.2 µg/mL (≈ 0.294 µM) in the test on Nakaseomyces glabratus. Moreover, the MIC80 in the test with Candida albicans [2] stood at 0.013 µg/mL (≈ 0.0191 µM).
As to `CN(Cc1ccc(N2CCN(Cc3ccc(S(C)(=O)=O)cc3)CC2)cc1)CC(O)(Cn1cncn1)c1ccc(F)cc1F` (configuration not stated), the MIC80 with Pichia kudriavzevii worked out at 3.2 µg/mL (≈ 5.24 µM); with Cryptococcus neoformans, 3.2 µg/mL (≈ 5.24 µM); in the test with Candida parapsilosis it was 0.8 µg/mL (≈ 1.31 µM); with Candida tropicalis it was 0.4 µg/mL (≈ 0.655 µM); in the test on Candida albicans [1], 0.8 µg/mL (≈ 1.31 µM); in the test on Nakaseomyces glabratus, 3.2 µg/mL (≈ 5.24 µM). Further, the MIC80 in the test on Candida albicans [2] was 0.4 µg/mL (≈ 0.655 µM).
As for `CN1CCN(c2ccc(CN(C)CC(O)(Cn3cncn3)c3ccc(F)cc3F)cc2)CC1` (configuration not stated), the MIC80 is above 32 µg/mL in the test on Pichia kudriavzevii; above 32 µg/mL with Cryptococcus neoformans; 8 µg/mL (≈ 17.5 µM) in the test with Candida parapsilosis; 4 µg/mL (≈ 8.76 µM) in the test on Candida tropicalis; 8 µg/mL (≈ 17.5 µM) with Candida albicans [1]; above 32 µg/mL in the test with Nakaseomyces glabratus. Besides, in the test with Candida albicans [2], the MIC80 amounted to 8 µg/mL (≈ 17.5 µM).
Consider `CN(Cc1ccc(N2CCN(Cc3ccccc3)CC2)cc1)CC(O)(Cn1cncn1)c1ccc(F)cc1F` (configuration not stated), for which the MIC80 with Pichia kudriavzevii was determined as 0.4 µg/mL (≈ 0.751 µM); in the test on Cryptococcus neoformans, 0.2 µg/mL (≈ 0.375 µM); with Candida parapsilosis, 0.025 µg/mL (≈ 0.0469 µM); with Candida tropicalis it was 0.013 µg/mL (≈ 0.0244 µM); with Candida albicans [1] it was 0.013 µg/mL (≈ 0.0244 µM); in the test with Nakaseomyces glabratus, 0.4 µg/mL (≈ 0.751 µM). In addition, the MIC80 in the test on Candida albicans [2] came to 0.013 µg/mL (≈ 0.0244 µM).
Consider `CN(Cc1ccc(N2CCN(Cc3cccc(Cl)c3)CC2)cc1)CC(O)(Cn1cncn1)c1ccc(F)cc1F` (configuration not stated), for which the MIC80 worked out at 0.1 µg/mL (≈ 0.176 µM) in the test on Pichia kudriavzevii; 0.1 µg/mL (≈ 0.176 µM) in the test with Cryptococcus neoformans; 0.006 µg/mL (≈ 0.0106 µM) in the test with Candida parapsilosis; 0.013 µg/mL (≈ 0.0229 µM) with Candida tropicalis; 0.013 µg/mL (≈ 0.0229 µM) in the test on Candida albicans [1]; 0.2 µg/mL (≈ 0.353 µM) with Nakaseomyces glabratus. For the same compound, the MIC80 in the test with Candida albicans [2] turned out to be 0.025 µg/mL (≈ 0.0441 µM).
In the case of `CN(Cc1ccc(N2CCN(Cc3cc(Br)ccc3Br)CC2)cc1)CC(O)(Cn1cncn1)c1ccc(F)cc1F` (configuration not stated), the MIC80 was found to be 0.1 µg/mL (≈ 0.145 µM) in the test with Pichia kudriavzevii; 0.006 µg/mL (≈ 0.00869 µM) in the test on Candida parapsilosis; 0.006 µg/mL (≈ 0.00869 µM) with Candida tropicalis; 0.025 µg/mL (≈ 0.0362 µM) in the test on Candida albicans [1]; 0.1 µg/mL (≈ 0.145 µM) with Nakaseomyces glabratus; 0.013 µg/mL (≈ 0.0188 µM) in the test on Candida albicans [2].
With `CC(C)c1ccc(CN2CCN(c3ccc(CN(C)CC(O)(Cn4cncn4)c4ccc(F)cc4F)cc3)CC2)cc1` (configuration not stated), the MIC80 in the test with Cryptococcus neoformans was found to be 0.1 µg/mL (≈ 0.174 µM); in the test on Candida parapsilosis, 0.013 µg/mL (≈ 0.0226 µM); with Candida tropicalis, 0.25 µg/mL (≈ 0.435 µM); in the test with Candida albicans [1], 0.013 µg/mL (≈ 0.0226 µM); with Nakaseomyces glabratus it was 0.4 µg/mL (≈ 0.696 µM); with Candida albicans [2] it was 0.013 µg/mL (≈ 0.0226 µM).
Regarding `CN(Cc1ccc(N2CCN(Cc3c(Cl)cccc3Br)CC2)cc1)CC(O)(Cn1cncn1)c1ccc(F)cc1F` (configuration not stated), the MIC80 in the test with Pichia kudriavzevii stood at 0.1 µg/mL (≈ 0.155 µM); in the test on Candida parapsilosis, 0.006 µg/mL (≈ 0.00929 µM); in the test on Candida tropicalis, 0.006 µg/mL (≈ 0.00929 µM); in the test with Candida albicans [1], 0.025 µg/mL (≈ 0.0387 µM); with Nakaseomyces glabratus it was 0.2 µg/mL (≈ 0.31 µM); with Candida albicans [2] it was 0.013 µg/mL (≈ 0.0201 µM).
`CN(Cc1ccc(N2CCN(Cc3ccccc3I)CC2)cc1)CC(O)(Cn1cncn1)c1ccc(F)cc1F` (configuration not stated): the MIC80 with Pichia kudriavzevii stood at 0.1 µg/mL (≈ 0.152 µM); in the test on Candida parapsilosis it was 0.025 µg/mL (≈ 0.038 µM); with Candida tropicalis, 0.013 µg/mL (≈ 0.0197 µM); in the test with Candida albicans [1], 0.013 µg/mL (≈ 0.0197 µM); with Nakaseomyces glabratus, 0.2 µg/mL (≈ 0.304 µM); in the test on Candida albicans [2] it was 0.013 µg/mL (≈ 0.0197 µM).
Regarding `CN(Cc1ccc(N2CCN(Cc3ccc(Br)cc3Br)CC2)cc1)CC(O)(Cn1cncn1)c1ccc(F)cc1F` (configuration not stated), the MIC80 in the test with Pichia kudriavzevii is 0.1 µg/mL (≈ 0.145 µM); with Candida parapsilosis it was 0.006 µg/mL (≈ 0.00869 µM); in the test with Candida tropicalis, 0.006 µg/mL (≈ 0.00869 µM); in the test with Candida albicans [1], 0.013 µg/mL (≈ 0.0188 µM); with Nakaseomyces glabratus, 0.1 µg/mL (≈ 0.145 µM); with Candida albicans [2], 0.013 µg/mL (≈ 0.0188 µM).
